In ChEMBL document CHEMBL3352746, “Synthesis and anticancer activity of quinopimaric and maleopimaric acids’ derivatives” (Bioorg Med Chem, 2014):
Active and inactive are the calls of the source. The calls are words filed in the database; no cut-off is given here.

Tests used:
CCRF-CEM = experiment: Growth inhibition of human CCRF-CEM cells; assay type: functional; settings: read-out: pTGI (converted)
[1] = Antitumor activity against mouse CA-755 cells implanted in mouse assessed as tumor growth inhibition at 40 mg/kg, ip dosed daily for 5 days measured 1 day after treatment termination; assay type: functional; settings: CA-755, ip, route intraperitoneal, read-out: TGI
[2] = Growth inhibition of human OVCAR3 cells; assay type: functional
[3] = Growth inhibition of human OVCAR8 cells; assay type: functional, OVCAR-8
[4] = Growth inhibition of human SF539 cells; assay type: functional
[5] = Antitumor activity against mouse CA-755 cells implanted in mouse assessed as tumor growth inhibition at 40 mg/kg, ip dosed daily for 5 days measured 12 days after treatment termination; assay type: functional; settings: CA-755, ip, route intraperitoneal, read-out: TGI
[6] = test system: Lewis lung carcinoma cell line; experiment: Antitumor activity against mouse LLC cells implanted in mouse assessed as increase in life span at 40 mg/kg, ip dosed daily for 5 days; assay type: functional; settings: 120 h, route intraperitoneal
M14 = experiment: Growth inhibition of human M14 cells; assay type: functional
Mus musculus [7] = experiment: Toxicity in mouse P388 cells implanted mouse assessed as mean spleen weight at 40 mg/kg, ip dosed daily for 5 days administered 24 hrs after tumor implantation; assay type: organism-based; set-up: dose 40 mg/kg, route intraperitoneal; settings: in vivo
[8] = Antitumor activity against mouse CA-755 cells implanted in mouse assessed as tumor growth inhibition at 40 mg/kg, ip dosed daily for 5 days measured 5 days after treatment termination; assay type: functional; settings: CA-755, ip, 120 h, route intraperitoneal, read-out: TGI
SF-268 = experiment: Growth inhibition of human SF268 cells; assay type: functional
NCI-H226 = experiment: Growth inhibition of human NCI-H226 cells; assay type: functional
[9] = Growth inhibition of human HCC2998 cells; assay type: functional
Mus musculus [10] = experiment: Toxicity in mouse CA-755 cells implanted mouse assessed as mouse mortality at 40 mg/kg, ip dosed daily for 5 days; assay type: organism-based; set-up: dose 40 mg/kg, route intraperitoneal; settings: in vivo, 120 h
[11] = test system: Lewis lung carcinoma cell line; experiment: Antitumor activity against mouse LLC cells implanted in mouse assessed as tumor growth inhibition at 40 mg/kg, ip dosed daily for 5 days measured 19 days after treatment termination; assay type: functional; settings: route intraperitoneal, read-out: TGI
[12] = Growth inhibition of human OVCAR4 cells; assay type: functional, OVCAR-4
[13] = Antitumor activity against mouse AKATOL cells implanted in mouse assessed as tumor growth inhibition at 40 mg/kg, ip dosed daily for 5 days measured 8 to 9 days after treatment termination; assay type: functional; settings: route intraperitoneal, read-out: TGI
SR = experiment: Growth inhibition of human SR cells; assay type: functional
786-0 = experiment: Growth inhibition of human 786-0 cells; assay type: functional
NCI60 = experiment: Cytotoxicity against human NCI60 cells assessed as cell growth at 10 uM; assay type: functional
[14] = Growth inhibition of human LOXIMVI cells; assay type: functional; settings: LOX IMVI
[15] = Antitumor activity against mouse AKATOL cells implanted in mouse assessed as tumor growth inhibition at 40 mg/kg, ip dosed daily for 5 days measured 1 day after treatment termination; assay type: functional; settings: route intraperitoneal, read-out: TGI
[16] = Antitumor activity against mouse CA-755 cells implanted in mouse assessed as tumor growth inhibition at 40 mg/kg, ip dosed daily for 5 days measured 16 days after treatment termination; assay type: functional; settings: CA-755, ip, route intraperitoneal, read-out: TGI
[17] = read-out: pLC50 (the source's name) (converted)

Compound: COC(=O)[C@]1(C)CCC[C@]2(C)[C@H]3C[C@H]4C(C(C)C)=C[C@]3(CC[C@H]21)[C@@H]1/C(=N/O)CC/C(=N\O)[C@@H]14
- TGI (CCRF-CEM): 7.08 µM
- inhibition in vivo at 40 mg/kg [1]: 83%
- GI50 ([2]; OVCAR-3): 2.4 µM
- CC50 ([2]; OVCAR-3, read-out: pLC50 (the source's name) (converted)): 15.8 µM
- TGI ([2]; OVCAR-3, read-out: pTGI (converted)): 5.37 µM
- GI50 ([3]; OVCAR-8): 3.24 µM
- CC50 ([3]; OVCAR-8, read-out: pLC50 (converted)): > 100 µM
- TGI ([3]; OVCAR-8, read-out: pTGI (converted)): 12.6 µM
- GI50 ([4]; SF-539): 9.12 µM
- CC50 ([4]; SF-539, read-out: pLC50 (the source's name) (converted)): 46.8 µM
- TGI ([4]; SF-539, read-out: pTGI (converted)): 21.4 µM
- inhibition in vivo at 40 mg/kg [5]: 35%
- ILS at 40 mg/kg [6]: 18%
- GI50 (M14): 5.25 µM
- CC50 (M14; [17]): 55 µM
- TGI (M14; read-out: pTGI (converted)): 18.6 µM
- Activity (Mus musculus [7]): 212 mg
- inhibition in vivo at 40 mg/kg [8]: 72%
- GI50 (SF-268): 4.37 µM
- CC50 (SF-268; [17]): 55 µM
- TGI (SF-268; read-out: pTGI (converted)): 17 µM
- GI50 (NCI-H226): 7.94 µM
- CC50 (NCI-H226; [17]): 85.1 µM
- TGI (NCI-H226; read-out: pTGI (converted)): 28.2 µM
- GI50 ([9]; HCC 2998): 2.75 µM
- CC50 ([9]; HCC 2998, read-out: pLC50 (the source's name) (converted)): 33.1 µM
- TGI ([9]; HCC 2998, read-out: pTGI (converted)): 6.46 µM
- Activity (Mus musculus [10]): Non-toxic
- inhibition in vivo at 40 mg/kg [11]: 37%
- GI50 ([12]; OVCAR-4): 3.55 µM
- CC50 ([12]; OVCAR-4, read-out: pLC50 (converted)): > 100 µM
- TGI ([12]; OVCAR-4, read-out: pTGI (converted)): 19.1 µM
- inhibition in vivo at 40 mg/kg [13]: 41%
- GI50 (SR): 2 µM
- CC50 (SR; [17]): 25.1 µM
- TGI (SR; read-out: pTGI (converted)): 4.79 µM
- GI50 (786-0): 5.75 µM
- CC50 (786-0; [17]): 53.7 µM
- TGI (786-0; read-out: pTGI (converted)): 19.5 µM
- Activity (NCI60): Active
- GI50 [14]: 2 µM
- CC50 [14, 17]: 7.76 µM
- TGI ([14]; read-out: pTGI (converted)): 3.98 µM
- inhibition in vivo at 40 mg/kg [15]: 57%
- inhibition in vivo at 40 mg/kg [16]: 32%
